# The source made the active and inactive calls. No cut-off for these calls is given here. Starred links: 1 amine or outer side, 2 acyl side, 3 side chain; linkers in the order of their positions; H or OH if unused. Non-standard residues stand in square brackets, D forms with d. Residues, ends and D or L forms follow the SMILES beside them. X2 = CN([C@@H](Cc1cccc(-c2cccc(-c3ccccc3)c2)c1)C(=O)[*:2])[*:1]; X4 = CN([C@@H](Cc1cccc(-c2ccc(-c3ccccc3)cc2)c1)C(=O)[*:2])[*:1]; X12 = CC(=O)Nc1ccc(-c2cccc(C[C@@H](C(=O)[*:2])N(C)[*:1])c2)cc1; X15 = CNC(=O)c1ccc(-c2cccc(C[C@@H](C(=O)[*:2])N(C)[*:1])c2)cc1; X7 = CN([C@@H](Cc1cccc(B2OC(C)(C)C(C)(C)O2)c1)C(=O)[*:2])[*:1]; X13 = COc1ccc(-c2cccc(C[C@@H](C(=O)[*:2])N(C)[*:1])c2)cc1; X3 = CN([C@@H](Cc1cccc(-c2ccc(Cl)cc2)c1)C(=O)[*:2])[*:1]; X8 = CN([C@@H](Cc1cccc(-c2ccc(Cl)nc2)c1)C(=O)[*:2])[*:1]; X10 = CCCCCC/C=C/c1cccc(C[C@@H](C(=O)[*:2])N(C)[*:1])c1; X6 = CN([C@@H](Cc1cccc(-c2ccccc2Cl)c1)C(=O)[*:2])[*:1]; X11 = CN([C@@H](Cc1ccc(-c2cccnc2)cc1)C(=O)[*:2])[*:1]; X14 = CN([C@@H](Cc1cccc(C2=CCCCC2)c1)C(=O)[*:2])[*:1]; X9 = CN([C@@H](Cc1cccc(-c2ccncc2)c1)C(=O)[*:2])[*:1]; NMePhe(3-Ph) = CN[C@@H](Cc1cccc(-c2ccccc2)c1)C(=O)O; X5 = CN([C@@H](Cc1cccc(B(O)O)c1)C(=O)[*:2])[*:1]; NMePhe(3-Br) = CN[C@@H](Cc1cccc(Br)c1)C(=O)O; NMePhe(3-I) = CN[C@@H](Cc1cccc(I)c1)C(=O)O; Hmp(2R,3S) = CC[C@H](C)[C@@H](O)C(=O)O; NMeVal(β-OH) = CN[C@H](C(=O)O)C(C)(C)O; NMeD = CN[C@@H](CC(=O)O)C(=O)O; NMeV = CN[C@H](C(=O)O)C(C)C
# Tests used:
# Assay type in all cases: functional
# [1] = tested on: Aspergillus fumigatus; assay: Antifungal activity against Aspergillus fumigatus by broth dilution method
# [2] = tested on: Candida albicans; assay: Antifungal activity against Candida albicans by broth dilution method
# [3] = Ratio of MIC for Aspergillus fumigatus to MIC for Candida albicans
Structure (SMILES),MIC [1],Activity [2],MIC [2],Ratio [3]
"CC[C@H](C)[C@@H]1NC(=O)[C@@H]2CCCN2C(=O)[C@H](Cc2ccc(-c3cccnc3)cc2)N(C)C(=O)[C@H](Cc2ccccc2)NC(=O)[C@H](C(C)C)N(C)C(=O)[C@@H]([C@@H](C)CC)OC(=O)[C@H](C(C)(C)O)N(C)C(=O)[C@H](CC(C)C)NC(=O)[C@H](C(C)C)N(C)C1=O (cyclo(F[X11]PI[NMeV]L[NMeVal(β-OH)][Hmp(2R,3S)][NMeV]))",< 2.5 mg/L,Active,,
"CC[C@H](C)[C@@H]1NC(=O)[C@@H]2CCCN2C(=O)[C@H](Cc2cccc(-c3ccc(-c4ccccc4)cc3)c2)N(C)C(=O)[C@H](Cc2ccccc2)NC(=O)[C@H](C(C)C)N(C)C(=O)[C@@H]([C@@H](C)CC)OC(=O)[C@H](C(C)(C)O)N(C)C(=O)[C@H](CC(C)C)NC(=O)[C@H](C(C)C)N(C)C1=O (cyclo(F[X4]PI[NMeV]L[NMeVal(β-OH)][Hmp(2R,3S)][NMeV]))",> 5 mg/L,,< 5 mg/L,
"CC[C@H](C)[C@@H]1NC(=O)[C@@H]2CCCN2C(=O)[C@H](Cc2cccc(-c3ccc(Cl)cc3)c2)N(C)C(=O)[C@H](Cc2ccccc2)NC(=O)[C@H](C(C)C)N(C)C(=O)[C@@H]([C@@H](C)CC)OC(=O)[C@H](C(C)(C)O)N(C)C(=O)[C@H](CC(C)C)NC(=O)[C@H](C(C)C)N(C)C1=O (cyclo(F[X3]PI[NMeV]L[NMeVal(β-OH)][Hmp(2R,3S)][NMeV]))",< 2.5 mg/L,,< 0.5 mg/L,> 10
"CC[C@H](C)[C@@H]1NC(=O)[C@@H]2CCCN2C(=O)[C@H](Cc2cccc(-c3ccc(OC)cc3)c2)N(C)C(=O)[C@H](Cc2ccccc2)NC(=O)[C@H](C(C)C)N(C)C(=O)[C@@H]([C@@H](C)CC)OC(=O)[C@H](C(C)(C)O)N(C)C(=O)[C@H](CC(C)C)NC(=O)[C@H](C(C)C)N(C)C1=O (cyclo(F[X13]PI[NMeV]L[NMeVal(β-OH)][Hmp(2R,3S)][NMeV]))",,,5 mg/L,
"CC[C@H](C)[C@@H]1NC(=O)[C@@H]2CCCN2C(=O)[C@H](Cc2cccc(B3OC(C)(C)C(C)(C)O3)c2)N(C)C(=O)[C@H](Cc2ccccc2)NC(=O)[C@H](C(C)C)N(C)C(=O)[C@@H]([C@@H](C)CC)OC(=O)[C@H](C(C)(C)O)N(C)C(=O)[C@H](CC(C)C)NC(=O)[C@H](C(C)C)N(C)C1=O (cyclo(F[X7]PI[NMeV]L[NMeVal(β-OH)][Hmp(2R,3S)][NMeV]))",10 mg/L,,< 0.5 mg/L,
"CC[C@H](C)[C@@H]1NC(=O)[C@@H]2CCCN2C(=O)[C@H](Cc2cccc(-c3cccc(-c4ccccc4)c3)c2)N(C)C(=O)[C@H](Cc2ccccc2)NC(=O)[C@H](C(C)C)N(C)C(=O)[C@@H]([C@@H](C)CC)OC(=O)[C@H](C(C)(C)O)N(C)C(=O)[C@H](CC(C)C)NC(=O)[C@H](C(C)C)N(C)C1=O (cyclo(F[X2]PI[NMeV]L[NMeVal(β-OH)][Hmp(2R,3S)][NMeV]))",> 5 mg/L,,< 5 mg/L,
"CCCCCC/C=C/c1cccc(C[C@H]2C(=O)N3CCC[C@H]3C(=O)N[C@@H]([C@@H](C)CC)C(=O)N(C)[C@@H](C(C)C)C(=O)N[C@@H](CC(C)C)C(=O)N(C)[C@@H](C(C)(C)O)C(=O)O[C@H]([C@@H](C)CC)C(=O)N(C)[C@@H](C(C)C)C(=O)N[C@@H](Cc3ccccc3)C(=O)N2C)c1 (cyclo(F[X10]PI[NMeV]L[NMeVal(β-OH)][Hmp(2R,3S)][NMeV]))",> 5 mg/L,,,
"CC[C@H](C)[C@@H]1NC(=O)[C@@H]2CCCN2C(=O)[C@H](Cc2cccc(Br)c2)N(C)C(=O)[C@H](Cc2ccccc2)NC(=O)[C@H](C(C)C)N(C)C(=O)[C@@H]([C@@H](C)CC)OC(=O)[C@H](C(C)(C)O)N(C)C(=O)[C@H](CC(C)C)NC(=O)[C@H](C(C)C)N(C)C1=O (cyclo(F[NMePhe(3-Br)]PI[NMeV]L[NMeVal(β-OH)][Hmp(2R,3S)][NMeV]))",2.5 mg/L,,0.031 mg/L,
"CC[C@H](C)[C@@H]1NC(=O)[C@@H]2CCCN2C(=O)[C@H](Cc2cccc(-c3ccc(Cl)nc3)c2)N(C)C(=O)[C@H](Cc2ccccc2)NC(=O)[C@H](C(C)C)N(C)C(=O)[C@@H]([C@@H](C)CC)OC(=O)[C@H](C(C)(C)O)N(C)C(=O)[C@H](CC(C)C)NC(=O)[C@H](C(C)C)N(C)C1=O (cyclo(F[X8]PI[NMeV]L[NMeVal(β-OH)][Hmp(2R,3S)][NMeV]))",< 1.25 mg/L,,< 0.025 mg/L,> 10
"CC[C@H](C)[C@@H]1NC(=O)[C@@H]2CCCN2C(=O)[C@H](Cc2cccc(Br)c2)N(C)C(=O)[C@H](CC(=O)O)NC(=O)[C@H](C(C)C)N(C)C(=O)[C@@H]([C@@H](C)CC)OC(=O)[C@H](C(C)(C)O)N(C)C(=O)[C@H](CC(C)C)NC(=O)[C@H](C(C)C)N(C)C1=O (cyclo(D[NMePhe(3-Br)]PI[NMeV]L[NMeVal(β-OH)][Hmp(2R,3S)][NMeV]))",10 mg/L,,5 mg/L,
"CC[C@H](C)[C@@H]1NC(=O)[C@@H]2CCCN2C(=O)[C@H](Cc2cccc(C3=CCCCC3)c2)N(C)C(=O)[C@H](Cc2ccccc2)NC(=O)[C@H](C(C)C)N(C)C(=O)[C@@H]([C@@H](C)CC)OC(=O)[C@H](C(C)(C)O)N(C)C(=O)[C@H](CC(C)C)NC(=O)[C@H](C(C)C)N(C)C1=O (cyclo(F[X14]PI[NMeV]L[NMeVal(β-OH)][Hmp(2R,3S)][NMeV]))",> 5 mg/L,,,
"CC[C@H](C)[C@@H]1NC(=O)[C@@H]2CCCN2C(=O)[C@H](Cc2cccc(-c3ccccc3)c2)N(C)C(=O)[C@H](Cc2ccccc2)NC(=O)[C@H](C(C)C)N(C)C(=O)[C@@H]([C@@H](C)CC)OC(=O)[C@H](C(C)(C)O)N(C)C(=O)[C@H](CC(C)C)NC(=O)[C@H](C(C)C)N(C)C1=O (cyclo(F[NMePhe(3-Ph)]PI[NMeV]L[NMeVal(β-OH)][Hmp(2R,3S)][NMeV]))",< 0.94 mg/L,,< 0.05 mg/L,> 10
"CC[C@H](C)[C@@H]1NC(=O)[C@@H]2CCCN2C(=O)[C@H](Cc2cccc(-c3ccncc3)c2)N(C)C(=O)[C@H](Cc2ccccc2)NC(=O)[C@H](C(C)C)N(C)C(=O)[C@@H]([C@@H](C)CC)OC(=O)[C@H](C(C)(C)O)N(C)C(=O)[C@H](CC(C)C)NC(=O)[C@H](C(C)C)N(C)C1=O (cyclo(F[X9]PI[NMeV]L[NMeVal(β-OH)][Hmp(2R,3S)][NMeV]))",< 1.25 mg/L,,< 0.025 mg/L,> 10
"CC[C@H](C)[C@@H]1NC(=O)[C@@H]2CCCN2C(=O)[C@H](Cc2cccc(-c3ccc(NC(C)=O)cc3)c2)N(C)C(=O)[C@H](Cc2ccccc2)NC(=O)[C@H](C(C)C)N(C)C(=O)[C@@H]([C@@H](C)CC)OC(=O)[C@H](C(C)(C)O)N(C)C(=O)[C@H](CC(C)C)NC(=O)[C@H](C(C)C)N(C)C1=O (cyclo(F[X12]PI[NMeV]L[NMeVal(β-OH)][Hmp(2R,3S)][NMeV]))",> 5 mg/L,,,
"CC[C@H](C)[C@@H]1NC(=O)[C@@H]2CCCN2C(=O)[C@H](Cc2cccc(B(O)O)c2)N(C)C(=O)[C@H](Cc2ccccc2)NC(=O)[C@H](C(C)C)N(C)C(=O)[C@@H]([C@@H](C)CC)OC(=O)[C@H](C(C)(C)O)N(C)C(=O)[C@H](CC(C)C)NC(=O)[C@H](C(C)C)N(C)C1=O (cyclo(F[X5]PI[NMeV]L[NMeVal(β-OH)][Hmp(2R,3S)][NMeV]))",> 100 mg/L,,< 0.05 mg/L,
"CC[C@H](C)[C@@H]1NC(=O)[C@@H]2CCCN2C(=O)[C@H](CC(=O)O)N(C)C(=O)[C@H](CC(=O)O)NC(=O)[C@H](C(C)C)N(C)C(=O)[C@@H]([C@@H](C)CC)OC(=O)[C@H](C(C)(C)O)N(C)C(=O)[C@H](CC(C)C)NC(=O)[C@H](C(C)C)N(C)C1=O (cyclo(D[NMeD]PI[NMeV]L[NMeVal(β-OH)][Hmp(2R,3S)][NMeV]))",> 100 mg/L,,10 mg/L,
"CC[C@H](C)[C@@H]1NC(=O)[C@@H]2CCCN2C(=O)[C@H](Cc2cccc(I)c2)N(C)C(=O)[C@H](Cc2ccccc2)NC(=O)[C@H](C(C)C)N(C)C(=O)[C@@H]([C@@H](C)CC)OC(=O)[C@H](C(C)(C)O)N(C)C(=O)[C@H](CC(C)C)NC(=O)[C@H](C(C)C)N(C)C1=O (cyclo(F[NMePhe(3-I)]PI[NMeV]L[NMeVal(β-OH)][Hmp(2R,3S)][NMeV]))",> 5 mg/L,,2.5 mg/L,
"CC[C@H](C)[C@@H]1NC(=O)[C@@H]2CCCN2C(=O)[C@H](Cc2cccc(-c3ccc(C(=O)NC)cc3)c2)N(C)C(=O)[C@H](Cc2ccccc2)NC(=O)[C@H](C(C)C)N(C)C(=O)[C@@H]([C@@H](C)CC)OC(=O)[C@H](C(C)(C)O)N(C)C(=O)[C@H](CC(C)C)NC(=O)[C@H](C(C)C)N(C)C1=O (cyclo(F[X15]PI[NMeV]L[NMeVal(β-OH)][Hmp(2R,3S)][NMeV]))",> 5 mg/L,,,
"CC[C@H](C)[C@@H]1NC(=O)[C@@H]2CCCN2C(=O)[C@H](Cc2cccc(-c3ccccc3Cl)c2)N(C)C(=O)[C@H](Cc2ccccc2)NC(=O)[C@H](C(C)C)N(C)C(=O)[C@@H]([C@@H](C)CC)OC(=O)[C@H](C(C)(C)O)N(C)C(=O)[C@H](CC(C)C)NC(=O)[C@H](C(C)C)N(C)C1=O (cyclo(F[X6]PI[NMeV]L[NMeVal(β-OH)][Hmp(2R,3S)][NMeV]))",< 1.25 mg/L,,< 0.5 mg/L,> 10
